Results reported in patent US20240287138A1, “CYCLIC PEPTIDES FOR INHIBITING TNF RECEPTOR 1 ACTIVITY” (Merck Sharp & Dohme LLC, priority 2023, published 2024).
Where two headings read alike, the source gives them in different places. Numbered stars: 1 amine (or outer) side, 2 acyl side, 3 side chain; on linkers, the order of the positions; unused ones are H or OH. Square brackets hold non-standard residues; d marks the D form. Peptide text beside a SMILES is read from it. * marks the point of attachment. Trp(βS-Me,7-OMe) = COc1cccc2c([C@H](C)[C@H](N)C(=O)O)c[nH]c12; Ala(indazol-1-yl) = N[C@@H](Cn1ncc2ccccc21)C(=O)O; Trp(7-CN) = N#Cc1cccc2c(C[C@H](N)C(=O)O)c[nH]c12; Trp(7-Cl) = N[C@@H](Cc1c[nH]c2c(Cl)cccc12)C(=O)O; Phe(3-CONH2) = NC(=O)c1cccc(C[C@H](N)C(=O)O)c1; Phe(4-CONH2) = NC(=O)c1ccc(C[C@H](N)C(=O)O)cc1; Phe(4-COOH) = N[C@@H](Cc1ccc(C(=O)O)cc1)C(=O)O; 4Pal(3S-Me) = C[C@@H](c1ccncc1)[C@H](N)C(=O)O; X9 = CN(C)[C@@H]1C[C@H](C(=O)[*:2])N([*:1])C1; Pip(5R-OH) = O=C(O)[C@@H]1CC[C@@H](O)CN1; X1 = O=C([C@@H]1CC[C@H](N[*:1])C1)[*:2]; Pip(4-aza) = O=C(O)[C@@H]1CNCCN1; 4Pal = N[C@@H](Cc1ccncc1)C(=O)O; Abu(4-CN) = N#CCC[C@H](N)C(=O)O; NMeE = CN[C@@H](CCC(=O)O)C(=O)O; dHyp = O=C(O)[C@H]1C[C@H](O)CN1; Ahp(2) = CCCCC[C@H](N)C(=O)O; αMeS = C[C@](N)(CO)C(=O)O; Carboxymethyl = O=C(O)C*; Nle = CCCC[C@H](N)C(=O)O; Sar = CNCC(=O)O

Legend:
[1] = target: T1, human soluble TNFR1 (sTNFR1) (Homo sapiens, UniProt P19438); test: Human sTNFR1-peptide displacement assay (LanthaScreen Eu TR-FRET binding assay)
T1 construct: made in house; host or cells: Sf21 (baculovirus)
T1 sequence (P19438 with tags, fused parts or gaps): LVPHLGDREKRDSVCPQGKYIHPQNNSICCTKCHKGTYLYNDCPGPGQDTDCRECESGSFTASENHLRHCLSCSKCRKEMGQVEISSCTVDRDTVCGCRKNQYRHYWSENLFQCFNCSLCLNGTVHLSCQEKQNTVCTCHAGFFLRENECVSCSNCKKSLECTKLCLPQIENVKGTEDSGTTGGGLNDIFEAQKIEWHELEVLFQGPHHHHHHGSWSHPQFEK
How it was run: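 Readout is the 665/615 nm TR-FRET ratio (Eu anti-His donor, streptavidin-Alexa647 acceptor), normalized to DMSO and saturating displacer, fit by Morrison-based five-parameter logistic for Kd^app. His-tagged sTNFR1 (1-211) prebound to 100 nM biotinylated peptide SEQ ID NO.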

[2] = target: T2, human TNFR1 extracellular domain (ECD) protein (Homo sapiens, UniProt P19438); test: SPR binding affinity to captured human TNFR1 ECD
T2 construct: HRV 3C protease cleavage site (C); 6His (C, cleaved yes); made in house; host or cells: Sf21 insect cells (baculovirus), secreted
T2 sequence (P19438 30-211): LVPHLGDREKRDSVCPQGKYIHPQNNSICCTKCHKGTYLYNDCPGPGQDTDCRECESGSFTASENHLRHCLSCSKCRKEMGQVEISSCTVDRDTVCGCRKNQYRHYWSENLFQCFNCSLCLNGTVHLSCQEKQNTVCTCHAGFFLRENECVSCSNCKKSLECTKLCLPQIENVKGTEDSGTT
How it was run: (§1)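 SPR kinetics: peptides over captured avi-biotinylated receptor ECDs, TNFR1 for affinity, TNFR2 run in parallel for off-target binding. Running buffer HEPES pH 7.4 with 150 mM NaCl, 3 mM EDTA, 0.05% P20, 2% DMSO; surface regenerated between analytes. Affinity derived from kon/koff.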

[3] = target: T3, human TNFR2 ECD protein (Homo sapiens, UniProt P20333); test: SPR off-target binding (selectivity) to human TNFR2 ECD
T3 construct: HRV 3C protease cleavage site (C); 6His (C, cleaved yes); made in house; host or cells: Sf21 insect cells (baculovirus), secreted
T3 sequence (P20333 23-257): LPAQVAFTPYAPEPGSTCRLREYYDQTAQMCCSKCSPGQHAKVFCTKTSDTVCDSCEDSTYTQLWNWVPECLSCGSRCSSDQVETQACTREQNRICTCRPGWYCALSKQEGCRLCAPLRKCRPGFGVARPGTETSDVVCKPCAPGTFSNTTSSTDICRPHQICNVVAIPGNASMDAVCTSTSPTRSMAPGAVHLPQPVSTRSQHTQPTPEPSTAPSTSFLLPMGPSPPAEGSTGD
How it was run: as §1

Compound: CCCC[C@@H]1NC(=O)[C@@H]2CC[C@@H](C2)NC(=O)[C@H]([C@@H](C)c2c[nH]c3c(OC)cccc23)NC(=O)CN(C)C(=O)[C@H](Cc2ccc(O)cc2)NC(=O)[C@H](Cc2ccc(C(N)=O)cc2)NC(=O)[C@](C)(CO)NC(=O)[C@H](Cc2c[nH]c3c(Cl)cccc23)NC(=O)[C@H](Cc2ccncc2)NC(=O)[C@H](CC(N)=O)NC(=O)[C@H](CCC(=O)O)N(C)C(=O)[C@H](Cn2ncc3ccccc32)NC(=O)[C@@H]2CC[C@@H](O)CN2C(=O)[C@H](Cc2ccncc2)NC1=O [SEQ ID NO. 74] (cyclo([4Pal][Trp(7-Cl)][αMeS][Phe(4-CONH2)]Y[Sar][Trp(βS-Me,7-OMe)][X1][Nle][4Pal][Pip(5R-OH)][Ala(indazol-1-yl)][NMeE]N))
- Kd [1]: 0.08 nM
- Kd [2]: 0.12 nM
- Kd [3]: > 1000 nM

Compound: CCCCC[C@@H]1NC(=O)[C@@H]2CC[C@@H](C2)NC(=O)[C@H]([C@@H](C)c2c[nH]c3c(OC)cccc23)NC(=O)CN(C)C(=O)[C@H](Cc2ccc(C(N)=O)cc2)NC(=O)[C@H](Cc2ccc(C(N)=O)cc2)NC(=O)[C@](C)(CO)NC(=O)[C@H](Cc2c[nH]c3c(C#N)cccc23)NC(=O)[C@H](Cc2ccc(C(=O)O)cc2)NC(=O)[C@H](CC(N)=O)NC(=O)[C@H]2C[C@H](O)CN2C(=O)[C@H](Cc2c[nH]c3ccccc23)NC(=O)[C@H](CCC#N)NC(=O)[C@H]([C@@H](C)c2ccncc2)NC1=O [SEQ ID NO. 79] (cyclo([Ahp(2)][4Pal(3S-Me)][Abu(4-CN)]W[dHyp]N[Phe(4-COOH)][Trp(7-CN)][αMeS][Phe(4-CONH2)][Phe(4-CONH2)][Sar][Trp(βS-Me,7-OMe)][X1]))
- Kd [1]: 0.15 nM
- Kd [2]: 0.05 nM
- Kd [3]: > 1000 nM

Compound: CCCC[C@@H]1NC(=O)[C@@H]2CC[C@@H](C2)NC(=O)[C@H]([C@@H](C)c2c[nH]c3c(OC)cccc23)NC(=O)CN(C)C(=O)[C@H](Cc2ccc(O)cc2)NC(=O)[C@H](Cc2ccc(OCC(=O)O)cc2)NC(=O)[C@](C)(CO)NC(=O)[C@H](Cc2c[nH]c3c(Cl)cccc23)NC(=O)[C@H](Cc2ccncc2)NC(=O)[C@H](CC(N)=O)NC(=O)[C@H](CCC(=O)O)N(C)C(=O)[C@H](Cc2c[nH]c3ccccc23)NC(=O)[C@@H]2CNCCN2C(=O)[C@H](Cc2ccncc2)NC1=O [SEQ ID NO. 80] (cyclo([4Pal][Trp(7-Cl)][αMeS]Y(Carboxymethyl)Y[Sar][Trp(βS-Me,7-OMe)][X1][Nle][4Pal][Pip(4-aza)]W[NMeE]N))
- Kd [1]: 0.3 nM
- Kd [2]: 0.33 nM
- Kd [3]: > 1000 nM

Compound: CCCC[C@@H]1NC(=O)[C@@H]2CC[C@@H](C2)NC(=O)[C@H]([C@@H](C)c2c[nH]c3c(OC)cccc23)NC(=O)CN(C)C(=O)[C@H](Cc2ccc(C(=O)O)cc2)NC(=O)[C@H](Cc2ccc(C(N)=O)cc2)NC(=O)[C@](C)(CO)NC(=O)[C@H](Cc2c[nH]c3c(Cl)cccc23)NC(=O)[C@H](Cc2ccncc2)NC(=O)[C@H](CC(N)=O)NC(=O)[C@H]2C[C@H](O)CN2C(=O)[C@H](Cc2c[nH]c3ccccc23)NC(=O)[C@@H]2CNCCN2C(=O)[C@H](Cc2ccncc2)NC1=O [SEQ ID NO. 83] (cyclo([4Pal][Trp(7-Cl)][αMeS][Phe(4-CONH2)][Phe(4-COOH)][Sar][Trp(βS-Me,7-OMe)][X1][Nle][4Pal][Pip(4-aza)]W[dHyp]N))
- Kd ([1]; displacement of biotinylated peptide SEQ ID NO. 1 from sTNFR1, 20 point titration, 5-parameter fit based on Morrison equation (tight binding), read-out: TR-FRET Kd^app): 0.16 nM
- Kd ([2]; biotinylated human TNFR1 ECD on streptavidin chip, from kon and koff, read-out: SPR hTNFR1 KD): 0.09 nM
- Kd ([3]; biotinylated human TNFR2 ECD on streptavidin chip, read-out: SPR hTNFR2 KD): > 1000 nM

Compound: CCCCC[C@@H]1NC(=O)[C@@H]2CC[C@@H](C2)NC(=O)[C@H]([C@@H](C)c2c[nH]c3c(OC)cccc23)NC(=O)CN(C)C(=O)[C@H](Cc2cccc(C(N)=O)c2)NC(=O)[C@H](Cc2ccc(C(N)=O)cc2)NC(=O)[C@](C)(CO)NC(=O)[C@H](Cc2c[nH]c3c(C#N)cccc23)NC(=O)[C@H](Cc2ccc(C(=O)O)cc2)NC(=O)[C@H](CC(N)=O)NC(=O)[C@H]2C[C@@H](N(C)C)CN2C(=O)[C@H](Cc2c[nH]c3ccccc23)NC(=O)[C@@H]2CC[C@@H](O)CN2C(=O)[C@H](Cc2ccncc2)NC1=O [SEQ ID NO. 84] (cyclo([4Pal][Pip(5R-OH)]W[X9]N[Phe(4-COOH)][Trp(7-CN)][αMeS][Phe(4-CONH2)][Phe(3-CONH2)][Sar][Trp(βS-Me,7-OMe)][X1][Ahp(2)]))
- Kd [1]: 0.06 nM
- Kd [2]: 0.02 nM
- Kd [3]: > 1000 nM
